Results reported in patent US20020193441A1, “Prostanoid therapies for the treatment of glaucoma” (priority 2001, published 2002).

Legend:
[1] = tested on: black and non-black patients; assay: Dose-response evaluations: travoprost concentration and IOP response in black and non-black patients; type: in vivo, human
Text: Dose-response studies were undertaken to evaluate the relationship between travoprost and IOP response in black and non-black patients. […] FIG. 1 depicts the relationship between log concentration and IOP for black patients versus non-black patients. For black patients, IOP went from approximately 28 mmHg at a concentration of 0.00009% travoprost to approximately 18.5 mmHg at 0.004% travoprost. For non-black patients, IOP went from approximately 23 mmHg at 0.00009% travoprost to approximately 18 mmHg at 0.004% travoprost. FIG. 2 depicts the relationship between log concentration and IOP change. IOP change went from approximately −1 mmHg to approximately −7.75 mmHg for black patients and from approximately −3.25 mmHg to approximately −7.25 mmHg for non-black patients. FIGS. 1 and 2 depict a comparison of IOP or IOP change to log concentration to illustrate the significance of the dose-response difference between the two groups. FIGS. 3 and 4 depict the same relationships using actual concentrations.

[2] = tested on: patients with open-angle glaucoma or ocular hypertension; assay: Clinical studies of travoprost (six, nine and twelve month studies pooled): IOP in black v. non-black patients; type: in vivo, human; conditions: for Mean IOP (overall) / IOP change from baseline: combined over visit and time of day; for Mean IOP (overall): pooled; for IOP change from baseline: three studies pooled, intent-to-treat
Method: The ability of travoprost to lower IOP was evaluated in three separate clinical trials, each involving the evaluation of both a low (0.0015%) and a high (0.004%) concentration composition. The studies differed in length, one lasting six months (hereinafter “six month study”), one lasting nine months (hereinafter “nine month study”) and one lasting twelve months (hereinafter “twelve month study”). The twelve month study was a triple-masked, parallel group, primary therapy study of the safety and efficacy of travoprost 0.0015% and travoprost 0.004% compared to timolol 0.5% and latanoprost 0.005% in patients with open-angle glaucoma or ocular hypertension. The term triple-masked is synonymous with the ICH E3 definition of double-blind. Patients of any race and either sex with open-angle glaucoma (with or without dispersion or pseudoexfoliation component) or ocular hypertension were qualified to participate in the studies. Pursuant to the study protocol, one group received travoprost 0.0015% topical ocular solution and dropped one drop once-daily in each eye at 8:00 p.m. A second group received travoprost 0.004% topical ocular solution and dropped one drop, once-daily in each eye at 8:00 p.m. A third group received vehicle only (placebo) and dropped one drop, once-daily in each eye at 8:00 a.m. A fourth group received timolol 0.5% topical ocular solution and dropped one drop, twice-daily in each eye at 8:00 a.m. and 8:00 p.m. A fifth group received latanoprost 0.005% topical ocular solution and dropped one drop, once-daily in each eye at 8:00 p.m. For evaluation purposes, the primary efficacy variable was mean intraocular pressure (IOP) in patient's worse eye. Safety was based on ocular and systemic parameters including hyperemia, flare, iris color, visual acuity, slit-lamp examinations, endothelial cell density, pachymetry, blood pressure and pulse, laboratory assessments, dilated fundus examinations, automated perimetry and adverse events. Repeated measures analysis of variance was used to test differences among treatment groups and to calculate 95% confidence limits about the differences between groups. The six month study was a triple-masked, parallel group, primary therapy study of the safety and efficacy of travoprost 0.0015% and travoprost 0.004% compared to timolol 0.5% in patients with open-angle glaucoma or ocular hypertension. The term triple-masked is synonymous with the ICH E3 definition of double-blind. Patients of any race and either sex with open-angle glaucoma (with or without dispersion or pseudoexfoliation component) or ocular hypertension were qualified to participate in the studies. Pursuant to the study protocol, one group received travoprost 0.0015% topical ocular solution and dropped one drop once-daily in each eye at 8:00 p.m. A second group received travoprost 0.004% topical ocular solution and dropped one drop, once-daily in each eye at 8:00 p.m. A third group received vehicle only (placebo) and dropped one drop, once-daily in each eye at 8:00 a.m. A fourth group received timolol 0.5% topical ocular solution and dropped one drop, twice-daily in each eye at 8:00 a.m. and 8:00 p.m. For evaluation purposes, the primary efficacy variable was mean intraocular pressure (IOP) in patient's worse eye. Safety was based on ocular and systemic parameters including hyperemia, aqueous cells and flare, iris pigmentation, visual acuity, slit-lamp biomicroscopy, blood pressure and pulse, laboratory assessments, dilated fundus examinations, automated perimetry and adverse events. Repeated measures analysis of variance was used to test differences among treatment groups and to calculate 95% confidence limits about the differences between groups. The nine month study was a triple-masked, parallel group, primary therapy study of the safety and efficacy of travoprost 0.0015% and travoprost 0.004% compared to timolol 0.5% and latanoprost 0.005% in patients with open-angle glaucoma or ocular hypertension. […]

[3] = travoprost 0.0015%, black patients
[4] = travoprost 0.0015%, non-black patients
[5] = travoprost 0.004%, black patients
[6] = travoprost 0.004%, non-black patients

CC(C)OC(=O)CCC/C=C\C[C@@H]1[C@@H](/C=C/[C@@H](O)COc2cccc(C(F)(F)F)c2)[C@H](O)C[C@@H]1O [Travoprost, travoprost]
IOP (FIG. 1) ([1]; 0.00009% travoprost, black patients): approximately 28 mmHg | IOP (FIG. 1) ([1]; 0.00009% travoprost, non-black patients): approximately 23 mmHg | IOP (FIG. 1) ([1]; 0.004% travoprost, black patients): approximately 18.5 mmHg | IOP (FIG. 1) ([1]; 0.004% travoprost, non-black patients): approximately 18 mmHg | Dose-response based on comparison slopes ([1]; black patients compared with non-black patients): much more pronounced dose-response | IOP change (FIG. 2) ([1]; black patients, high end of concentration range ('to')): approximately −7.75 mmHg | IOP change (FIG. 2) ([1]; black patients, low end of concentration range ('from')): approximately −1 mmHg | Mean IOP versus dose ([1]; both race subgroups): reduced significantly with increasing dose | IOP change (FIG. 2) ([1]; non-black patients, high end of concentration range ('to')): approximately −7.25 mmHg | IOP change (FIG. 2) ([1]; non-black patients, low end of concentration range ('from')): approximately −3.25 mmHg | Further IOP reduction when dose increased from 0.0015% to 0.004% ([2]; blacks): statistically significant further reduction | Further IOP reduction when dose increased from 0.0015% to 0.004% ([2]; caucasians (non-blacks)): no further reduction | Subgroup difference in mean IOP between black and non-black patients (analysis of variance) ([2]; travoprost 0.0015% analysis): No statistically significant subgroup differences | Difference in IOP change from baseline between blacks and non-blacks ([2]; travoprost 0.0015% dose): no significant difference | Mean IOP (combined over visit) ([2]; travoprost 0.0015%, black patients, 4 p.m.): 17.8 mmHg | Mean IOP (combined over visit) ([2]; travoprost 0.0015%, black patients, 8 a.m.): 19.6 mmHg | Mean IOP (combined over visit) ([2]; travoprost 0.0015%, black patients, 10 a.m.): 18.4 mmHg | Mean IOP (overall) [2, 3]: 18.6 mmHg | IOP change from baseline [2, 3]: −7.1 mmHg | Mean IOP (combined over visit) ([2]; travoprost 0.0015%, non-black patients, 4 p.m.): 18.2 mmHg | Mean IOP (combined over visit) ([2]; travoprost 0.0015%, non-black patients, 8 a.m.): 19.4 mmHg | Mean IOP (combined over visit) ([2]; travoprost 0.0015%, non-black patients, 10 a.m.): 18.5 mmHg | Mean IOP (overall) [2, 4]: 18.7 mmHg | IOP change from baseline [2, 4]: −7.1 mmHg | Subgroup difference in mean IOP between black and non-black patients (analysis of variance) ([2]; travoprost 0.004% analysis): significant subgroup difference | Subgroup difference in mean IOP, black lower than non-black ([2]; travoprost 0.004%, 4 PM): 1.1 mmHg | Subgroup difference in mean IOP, black lower than non-black ([2]; travoprost 0.004%, 8 AM): 0.8 mmHg | Subgroup difference in mean IOP, black lower than non-black ([2]; travoprost 0.004%, 10 AM): 1.5 mmHg | Mean IOP (combined over visit) ([2]; travoprost 0.004%, black patients, 4 p.m.): 16.8 mmHg | Mean IOP (combined over visit) ([2]; travoprost 0.004%, black patients, 8 a.m.): 18.6 mmHg | Mean IOP (combined over visit) ([2]; travoprost 0.004%, black patients, 10 a.m.): 16.8 mmHg | Mean IOP (overall) [2, 5]: 17.4 mmHg | IOP change from baseline [2, 5]: −8.1 mmHg | Difference in mean IOP, black lower than non-black ([2]; travoprost 0.004%, combined (8 a.m., 10 a.m., and 4 p.m.) results): up to 1.5 mmHg | Mean IOP (combined over visit) ([2]; travoprost 0.004%, non-black patients, 4 p.m.): 18.0 mmHg | Mean IOP (combined over visit) ([2]; travoprost 0.004%, non-black patients, 8 a.m.): 19.3 mmHg | Mean IOP (combined over visit) ([2]; travoprost 0.004%, non-black patients, 10 a.m.): 18.3 mmHg | Mean IOP (overall) [2, 6]: 18.5 mmHg | IOP change from baseline [2, 6]: −7.5 mmHg | Difference in mean IOP, black lower than non-black ([2]; travoprost 0.004%, overall result): 1.1 mmHg
